Assay results from ChEMBL document CHEMBL1136068 (Bioorg Med Chem Lett, 2003).

Assays:
[1] = target: T1, Androgen receptor (Homo sapiens) (UniProt P10275); test: Antagonist efficacy at human androgen (hAR) receptor; not active; format: functional
T1 sequence (whole entry): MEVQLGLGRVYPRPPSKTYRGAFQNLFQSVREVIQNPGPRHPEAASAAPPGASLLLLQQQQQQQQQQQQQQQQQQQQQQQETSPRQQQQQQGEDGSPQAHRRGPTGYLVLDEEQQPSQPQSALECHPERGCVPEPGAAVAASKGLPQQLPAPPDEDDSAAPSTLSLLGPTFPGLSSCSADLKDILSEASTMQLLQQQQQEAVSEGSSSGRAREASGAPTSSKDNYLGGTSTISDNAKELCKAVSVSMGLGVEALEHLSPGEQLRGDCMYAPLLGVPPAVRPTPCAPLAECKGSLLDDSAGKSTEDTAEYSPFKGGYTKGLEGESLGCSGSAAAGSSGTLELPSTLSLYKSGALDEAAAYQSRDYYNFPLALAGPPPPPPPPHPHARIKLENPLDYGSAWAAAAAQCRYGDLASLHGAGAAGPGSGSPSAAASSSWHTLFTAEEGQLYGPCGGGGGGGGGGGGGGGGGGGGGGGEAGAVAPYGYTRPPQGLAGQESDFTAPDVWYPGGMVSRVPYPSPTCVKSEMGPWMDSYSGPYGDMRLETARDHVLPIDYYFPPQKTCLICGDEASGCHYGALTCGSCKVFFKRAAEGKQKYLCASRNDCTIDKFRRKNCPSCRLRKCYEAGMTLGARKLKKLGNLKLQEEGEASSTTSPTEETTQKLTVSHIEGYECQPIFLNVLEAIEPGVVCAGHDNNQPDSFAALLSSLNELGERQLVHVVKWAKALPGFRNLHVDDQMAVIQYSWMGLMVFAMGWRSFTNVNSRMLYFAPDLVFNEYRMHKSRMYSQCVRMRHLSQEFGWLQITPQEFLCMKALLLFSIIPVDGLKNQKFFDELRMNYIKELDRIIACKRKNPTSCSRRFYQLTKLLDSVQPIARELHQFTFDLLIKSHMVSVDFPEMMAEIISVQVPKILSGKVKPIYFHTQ

Progesterone receptor = target: T2, Progesterone receptor (Homo sapiens, UniProt P06401); test: Binding affinity for human progesterone receptor; […]
T2 sequence (P06401 whole entry): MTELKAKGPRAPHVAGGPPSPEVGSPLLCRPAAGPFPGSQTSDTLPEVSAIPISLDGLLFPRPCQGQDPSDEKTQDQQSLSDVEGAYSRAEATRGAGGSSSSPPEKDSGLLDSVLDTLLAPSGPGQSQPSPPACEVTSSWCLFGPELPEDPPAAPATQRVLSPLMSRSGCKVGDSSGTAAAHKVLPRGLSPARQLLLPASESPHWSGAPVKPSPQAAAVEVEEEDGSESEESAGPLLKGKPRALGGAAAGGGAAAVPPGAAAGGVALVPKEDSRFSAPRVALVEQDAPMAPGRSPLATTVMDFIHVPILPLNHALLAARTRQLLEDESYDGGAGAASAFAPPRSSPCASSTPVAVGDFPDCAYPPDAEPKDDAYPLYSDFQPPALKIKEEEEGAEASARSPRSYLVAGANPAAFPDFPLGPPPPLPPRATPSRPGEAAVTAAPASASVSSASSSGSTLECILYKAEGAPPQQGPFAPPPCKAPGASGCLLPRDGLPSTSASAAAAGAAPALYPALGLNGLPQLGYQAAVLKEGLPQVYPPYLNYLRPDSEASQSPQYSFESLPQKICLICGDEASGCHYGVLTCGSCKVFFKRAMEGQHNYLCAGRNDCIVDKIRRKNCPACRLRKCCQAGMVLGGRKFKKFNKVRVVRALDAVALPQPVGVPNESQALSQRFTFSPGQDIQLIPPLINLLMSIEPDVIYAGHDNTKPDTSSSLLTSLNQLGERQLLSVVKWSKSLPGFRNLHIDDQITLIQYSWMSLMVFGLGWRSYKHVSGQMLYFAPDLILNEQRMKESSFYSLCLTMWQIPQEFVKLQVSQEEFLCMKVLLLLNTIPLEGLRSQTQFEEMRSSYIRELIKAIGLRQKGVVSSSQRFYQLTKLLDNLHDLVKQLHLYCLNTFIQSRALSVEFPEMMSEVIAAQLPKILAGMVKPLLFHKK

[2] = target: T3, Glucocorticoid receptor (Homo sapiens) (UniProt P04150); test: Antagonist efficacy at glucocorticoid (hGR) receptor; format: functional
T3 sequence (whole entry): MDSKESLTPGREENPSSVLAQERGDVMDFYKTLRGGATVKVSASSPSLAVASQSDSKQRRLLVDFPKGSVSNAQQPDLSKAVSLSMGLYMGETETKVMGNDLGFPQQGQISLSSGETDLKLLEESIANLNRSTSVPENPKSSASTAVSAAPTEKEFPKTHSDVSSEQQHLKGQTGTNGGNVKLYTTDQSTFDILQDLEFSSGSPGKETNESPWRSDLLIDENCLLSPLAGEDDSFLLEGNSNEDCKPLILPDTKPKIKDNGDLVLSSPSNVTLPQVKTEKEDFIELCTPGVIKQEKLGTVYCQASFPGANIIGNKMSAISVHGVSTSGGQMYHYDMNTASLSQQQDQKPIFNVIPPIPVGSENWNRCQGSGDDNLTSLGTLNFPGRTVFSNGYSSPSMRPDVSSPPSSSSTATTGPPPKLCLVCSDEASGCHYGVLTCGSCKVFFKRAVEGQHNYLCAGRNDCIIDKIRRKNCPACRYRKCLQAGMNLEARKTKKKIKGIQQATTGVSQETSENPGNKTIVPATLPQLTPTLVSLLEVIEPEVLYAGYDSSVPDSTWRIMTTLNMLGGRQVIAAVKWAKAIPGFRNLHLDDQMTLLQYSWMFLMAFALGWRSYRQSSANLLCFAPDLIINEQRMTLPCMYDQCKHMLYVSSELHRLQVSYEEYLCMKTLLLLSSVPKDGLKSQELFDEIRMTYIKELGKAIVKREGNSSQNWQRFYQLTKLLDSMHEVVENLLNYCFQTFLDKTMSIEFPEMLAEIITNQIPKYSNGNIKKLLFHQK

Row | Efficacy [1] | Ki (Progesterone receptor) | Efficacy [2] | Structure (SMILES)
1 | < 20% | 2.5 nM |  | CC(C)=C/C=C1\Oc2ccc(F)cc2-c2ccc3c(c21)C(C)=CC(C)(C)N3
2 |  |  | 157% | CC(=O)C[C@]1(C(C)=O)CC[C@H]2C3C[C@H](C)C4=CC(=O)CC[C@]4(C)[C@H]3CC[C@@]21C (stereo partly drawn)
